Results on 23 compounds are retold here after patent US7268128B2, “1,3,5-trisubstituted-5-phenyl and 5-pyridyl pyrazolopyrimidinone derivatives having PDE7 inhibiting action” (Ausbio Pharma Co., Ltd., priority 2001, dated 2007).

The structures appear in SMILES notation. Structures can show the parent of a compound that is named as a salt.

The term IC50 denotes the midpoint of a concentration-inhibition curve.

The target of this experiment is T1, PDE7 (type VII phosphodiesterase) (Homo sapiens, UniProt Q13946).
T1 construct: endogenous in cells; host or cells: MOLT-4 (ATCC CRL-1582), soluble fraction, HiTrapQ anion-exchange fraction
T1 sequence (Q13946 whole entry): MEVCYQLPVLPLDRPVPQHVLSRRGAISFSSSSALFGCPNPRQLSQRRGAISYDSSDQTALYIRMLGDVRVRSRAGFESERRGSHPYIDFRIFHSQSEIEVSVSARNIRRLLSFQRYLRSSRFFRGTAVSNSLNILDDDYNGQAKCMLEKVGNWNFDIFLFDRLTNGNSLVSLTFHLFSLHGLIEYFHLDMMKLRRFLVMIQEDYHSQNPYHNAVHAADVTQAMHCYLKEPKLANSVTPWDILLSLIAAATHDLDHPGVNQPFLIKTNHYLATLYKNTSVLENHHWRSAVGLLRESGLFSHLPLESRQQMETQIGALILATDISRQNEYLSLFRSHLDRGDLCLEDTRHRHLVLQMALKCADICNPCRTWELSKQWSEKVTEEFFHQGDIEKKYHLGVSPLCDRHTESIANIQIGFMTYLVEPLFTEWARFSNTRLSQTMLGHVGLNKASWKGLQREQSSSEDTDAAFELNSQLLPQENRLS
Put plainly: PDE7 inhibiting activity (3H-cAMP hydrolysis, active fraction from MOLT-4 cells). The class given is biochemical. The following applies: PDE7 fraction from MOLT-4 cells, 0.064 μM cAMP, 10 μM rolipram present, 2 hours at 25° C.; read-out: IC50 values for phosphodiesterase inhibiting activities (PDE7). The gist of the method: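 Read-out: supernatant radioactivity after twice-repeated QAE-Sephadex treatment of a 2 h, 25° C reaction (3H-cAMP at 0.064 μM cAMP, 10 μM rolipram, 5′-nucleotidase, 1 mM MgCl2, pH 7.5). Enzyme is an anion-exchange-purified fraction from MOLT-4 T cells. IC50 taken as half-maximal inhibition.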
As for `COCCNCc1ccc(-c2nc3c(C)nn(C4CCCCC4)c3c(=O)[nH]2)c(OC)c1` [Example 237, 1-Cyclohexyl-5-(2-methoxy-4-{[(2-methoxyethyl)amino]methyl}phenyl)-3-methyl-1,6-dihydro-7H-pyrazolo[4,3-d]pyrimidin-7-one], the IC50 is ≤ 1000 nM.

Turning to `COc1cc(CN2CCC(C(=O)O)CC2)ccc1-c1nc2c(C)nn(C3CCCCC3)c2c(=O)[nH]1` [Example 239, 1-[4-(1-Cyclohexyl-3-methyl-7-oxo-6,7-dihydro-1H-pyrazolo[4,3-d]pyrimidin-5-yl)-3-methoxybenzyl]-4-piperidinecarboxylic acid], the IC50 is ≤ 1000 nM. The value for `CNC1CCN(Cc2ccc(-c3nc4c(C)nn(C5CCCCC5)c4c(=O)[nH]3)c(OC)c2)CC1` [Example 241, 1-Cyclohexyl-5-(2-methoxy-4-{[4-(methylamino)-1-piperidinyl]methyl}phenyl)-3-methyl-1,6-dihydro-7H-pyrazolo[4,3-d]pyrimidin-7-one] was ≤ 1000 nM; that for `COc1cc(NC2CCOCC2)ccc1-c1nc2c(C)nn(C3CCCCC3)c2c(=O)[nH]1` [Example 242, 1-Cyclohexyl-5-[2-methoxy-4-(tetrahydro-2H-pyran-4-ylamino)phenyl]-3-methyl-1,6-dihydro-7H-pyrazolo[4,3-d]pyrimidin-7-one] was ≤ 1000 nM. Regarding `COc1cc(N2CCC(N(C)C)CC2)ccc1-c1nc2c(C)nn(C3CCCCC3)c2c(=O)[nH]1` [Example 245, 1-Cyclohexyl-5-{4-[4-(dimethylamino)-1-piperidinyl]-2-methoxyphenyl}-3-methyl-1,6-dihydro-7H-pyrazolo[4,3-d]pyrimidin-7-one], the IC50 is ≤ 1000 nM.

Regarding `COc1cc(N2CCC(N)CC2)ccc1-c1nc2c(C)nn(C3CCCCC3)c2c(=O)[nH]1` [Example 247, 5-[4-(4-Amino-1-piperidinyl)-2-methoxyphenyl]-1-cyclohexyl-3-methyl-1,6-dihydro-7H-pyrazolo[4,3-d]pyrimidin-7-one], the IC50 was ≤ 1000 nM. For `CCOc1cc(N2CCC(N(C)C)CC2)ccc1-c1nc2c(C)nn(C3CCCCC3)c2c(=O)[nH]1` [Example 250, 1-Cyclohexyl-5-{4-[4-(dimethylamino)-1-piperidinyl]-2-ethoxyphenyl}-3-methyl-1,6-dihydro-7H-pyrazolo[4,3-d]pyrimidin-7-one], the IC50 is ≤ 10 nM. With `CCNC1CCN(c2ccc(-c3nc4c(C)nn(C5CCCCC5)c4c(=O)[nH]3)c(OCC)c2)CC1` [Example 253, 1-Cyclohexyl-5-{2-ethoxy-4-[4-(ethylamino)-1-piperidinyl]phenyl}-3-methyl-1,6-dihydro-7H-pyrazolo[4,3-d]pyrimidin-7-one], the IC50 is ≤ 1000 nM. For `CCOc1cc(S(=O)(=O)N2CCCN(C)CC2)ccc1-c1nc2c(C)nn(C3CCCCC3)c2c(=O)[nH]1` [Example 256, 1-Cyclohexyl-5-{2-ethoxy-4-[(4-methyl-1,4-diazepan-1-yl)sulfonyl]phenyl}-3-methyl-1,6-dihydro-7H-pyrazolo[4,3-d]pyrimidin-7-one] the value was ≤ 1000 nM. Turning to `CCOc1cc(S(=O)(=O)N2CCC(O)CC2)ccc1-c1nc2c(C)nn(C3CCCCC3)c2c(=O)[nH]1` [Example 257, 1-Cyclohexyl-5-{2-ethoxy-4-[(4-hydroxy-1-piperidinyl)sulfonyl]phenyl}-3-methyl-1,6-dihydro-7H-pyrazolo[4,3-d]pyrimidin-7-one], the IC50 was ≤ 1000 nM. On to `COc1cc(N2CCC(O)CC2)ccc1-c1nc2c(C)nn(C3CCCCC3)c2c(=O)[nH]1` [Example 258, 1-Cyclohexyl-5-[4-(4-hydroxy-1-piperidinyl)-2-methoxyphenyl]-3-methyl-1,6-dihydro-7H-pyrazolo[4,3-d]pyrimidin-7-one], for which the IC50 was ≤ 1000 nM.

With `CCOc1cc(N2CCC(N)CC2)ccc1-c1nc2c(C)nn(C3CCCCC3)c2c(=O)[nH]1` [Example 260, 5-[4-(4-Amino-1-piperidinyl)-2-ethoxyphenyl]-1-cyclohexyl-3-methyl-1,6-dihydro-7H-pyrazolo[4,3-d]pyrimidin-7-one], the IC50 is ≤ 10 nM. For `CCOc1cc(N2CCC(O)CC2)ccc1-c1nc2c(C)nn(C3CCCCC3)c2c(=O)[nH]1` [Example 261, 1-Cyclohexyl-5-[2-ethoxy-4-(4-hydroxy-1-piperidinyl)phenyl]-3-methyl-1,6-dihydro-7H-pyrazolo[4,3-d]pyrimidin-7-one] the value was ≤ 10 nM. `CCOc1cc(N2CCCNCC2)ccc1-c1nc2c(C)nn(C3CCCCC3)c2c(=O)[nH]1` [Example 262, 1-Cyclohexyl-5-[4-(1,4-diazepan-1-yl)-2-ethoxyphenyl]-3-methyl-1,6-dihydro-7H-pyrazolo[4,3-d]pyrimidin-7-one]: the IC50 was ≤ 10 nM. The value for `CCOc1cc(NCCOC)ccc1-c1nc2c(C)nn(C3CCCCC3)c2c(=O)[nH]1` [Example 263, 1-Cyclohexyl-5-{2-ethoxy-4-[(2-methoxyethyl)amino]phenyl}-3-methyl-1,6-dihydro-7H-pyrazolo[4,3-d]pyrimidin-7-one] was ≤ 10 nM; that for `CCOc1cc(N2CCN(C)CC2)ccc1-c1nc2c(C)nn(C3CCCCC3)c2c(=O)[nH]1` [Example 264, 1-Cyclohexyl-5-[2-ethoxy-4-(4-methyl-1-piperazinyl)phenyl]-3-methyl-1,6-dihydro-7H-pyrazolo[4,3-d]pyrimidin-7-one] was ≤ 1000 nM; that for `COc1cc(N2CCCNCC2)c(F)cc1-c1nc2c(C)nn(C3CCCCC3)c2c(=O)[nH]1` [Example 266, 1-Cyclohexyl-5-[4-(1,4-diazepan-1-yl)-5-fluoro-2-methoxyphenyl]-3-methyl-1,6-dihydro-7H-pyrazolo[4,3-d]pyrimidin-7-one] was ≤ 1000 nM. The value for `COc1cc(N(C)C2CCN(C)CC2)ccc1-c1nc2c(C)nn(C3CCCCC3)c2c(=O)[nH]1` [Example 267, 1-Cyclohexyl-5-{2-methoxy-4-[methyl(1-methyl-4-piperidinyl)amino]phenyl}-3-methyl-1,6-dihydro-7H-pyrazolo[4,3-d]pyrimidin-7-one] was ≤ 1000 nM. Take `CCOc1cc(N2CCNCC2)ccc1-c1nc2c(C)nn(C3CCCCC3)c2c(=O)[nH]1` [Example 268, 1-Cyclohexyl-5-[2-ethoxy-4-(1-piperazinyl)phenyl]-3-methyl-1,6-dihydro-7H-pyrazolo[4,3-d]pyrimidin-7-one]: the IC50 was ≤ 1000 nM.

As to `COc1cc(N2CC[C@@H](O)C2)ccc1-c1nc2c(C)nn(C3CCCCC3)c2c(=O)[nH]1` [Example 270, 1-Cyclohexyl-5-{4-[(3R)-3-hydroxypyrrolidinyl]-2-methoxyphenyl}-3-methyl-1,6-dihydro-7H-pyrazolo[4,3-d]pyrimidin-7-one], the IC50 was ≤ 1000 nM.

As for `COc1cc(C2=CCN(Cc3ccccc3)CC2)ccc1-c1nc2c(C)nn(C3CCCCC3)c2c(=O)[nH]1` [Example 272, 5-[4-(1-Benzyl-1,2,3,6-tetrahydro-4-pyridinyl)-2-methoxyphenyl]-1-cyclohexyl-3-methyl-1,6-dihydro-7H-pyrazolo[4,3-d]pyrimidin-7-one], the IC50 was ≤ 1000 nM. In the case of `COc1cc(C2=CCNCC2)ccc1-c1nc2c(C)nn(C3CCCCC3)c2c(=O)[nH]1` [Example 273, 1-Cyclohexyl-5-[2-methoxy-4-(1,2,3,6-tetrahydro-4-pyridinyl)phenyl]-3-methyl-1,6-dihydro-7H-pyrazolo[4,3-d]pyrimidin-7-one monohydrochloride], the IC50 was ≤ 1000 nM. `CCNc1ccc(-c2nc3c(C)nn(C4CCCCC4)c3c(=O)[nH]2)c(OC)c1` [Example 275, 1-Cyclohexyl-5-[4-(ethylamino)-2-methoxyphenyl]-3-methyl-1,6-dihydro-7H-pyrazolo[4,3-d]pyrimidin-7-one]: the IC50 was ≤ 1000 nM.
